In ChEMBL document CHEMBL5154740, “Novel Aurora A and Protein Kinase C (α, β1, β2, and θ) Multitarget Inhibitors: Impact of Selenium Atoms on the Potency and Selectivity” (J Med Chem, 2022):

Tests used:
Aurora kinase C = Aurora kinase C (Homo sapiens, UniProt Q9UQB9); assay: Inhibition of AURC (unknown origin)
[1] = target: Protein kinase C eta type (Homo sapiens, UniProt P24723); assay: Inhibition of PKCeta (unknown origin) by IMAP kinase assay
[2] = target: T1, Aurora kinase A (Homo sapiens) (UniProt O14965); assay: Inhibition of AURA (unknown origin) at 50 nM by Z'LYTE screening method relative to control
T1 sequence (whole entry): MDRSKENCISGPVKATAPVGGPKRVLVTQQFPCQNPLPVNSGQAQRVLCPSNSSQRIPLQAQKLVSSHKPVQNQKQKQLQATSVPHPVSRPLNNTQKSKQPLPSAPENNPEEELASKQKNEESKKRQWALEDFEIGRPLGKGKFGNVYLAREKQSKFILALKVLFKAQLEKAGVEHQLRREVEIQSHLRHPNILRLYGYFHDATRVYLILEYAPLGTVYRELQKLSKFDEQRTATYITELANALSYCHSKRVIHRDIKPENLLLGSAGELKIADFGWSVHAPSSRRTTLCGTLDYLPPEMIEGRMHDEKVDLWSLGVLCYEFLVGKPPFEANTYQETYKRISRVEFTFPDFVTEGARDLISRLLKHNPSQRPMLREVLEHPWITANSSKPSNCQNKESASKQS

[3] = target: Aurora kinase B (Homo sapiens) (UniProt Q96GD4); assay: Inhibition of AURB (unknown origin) at 50 nM by Z'LYTE screening method relative to control
[4] = target: Protein kinase C alpha type (Homo sapiens) (UniProt P17252); assay: Inhibition of PKCalpha (unknown origin) at 50 nM by Z'LYTE screening method relative to control
[5] = target: Protein kinase C beta type (Homo sapiens) (UniProt P05771); assay: Inhibition of PKCbeta1 (unknown origin) at 50 nM by Z'LYTE screening method relative to control
[6] = target: Protein kinase C beta type (Homo sapiens) (UniProt P05771); assay: Inhibition of PKCbeta2 (unknown origin) at 50 nM by Z'LYTE screening method relative to control
[7] = target: T2, Protein kinase C theta type (Homo sapiens, UniProt Q04759); assay: Inhibition of PKCtheta (unknown origin) at 50 nM by Z'LYTE screening method relative to control
Target sequence in this assay (Q04759 whole entry, looked up): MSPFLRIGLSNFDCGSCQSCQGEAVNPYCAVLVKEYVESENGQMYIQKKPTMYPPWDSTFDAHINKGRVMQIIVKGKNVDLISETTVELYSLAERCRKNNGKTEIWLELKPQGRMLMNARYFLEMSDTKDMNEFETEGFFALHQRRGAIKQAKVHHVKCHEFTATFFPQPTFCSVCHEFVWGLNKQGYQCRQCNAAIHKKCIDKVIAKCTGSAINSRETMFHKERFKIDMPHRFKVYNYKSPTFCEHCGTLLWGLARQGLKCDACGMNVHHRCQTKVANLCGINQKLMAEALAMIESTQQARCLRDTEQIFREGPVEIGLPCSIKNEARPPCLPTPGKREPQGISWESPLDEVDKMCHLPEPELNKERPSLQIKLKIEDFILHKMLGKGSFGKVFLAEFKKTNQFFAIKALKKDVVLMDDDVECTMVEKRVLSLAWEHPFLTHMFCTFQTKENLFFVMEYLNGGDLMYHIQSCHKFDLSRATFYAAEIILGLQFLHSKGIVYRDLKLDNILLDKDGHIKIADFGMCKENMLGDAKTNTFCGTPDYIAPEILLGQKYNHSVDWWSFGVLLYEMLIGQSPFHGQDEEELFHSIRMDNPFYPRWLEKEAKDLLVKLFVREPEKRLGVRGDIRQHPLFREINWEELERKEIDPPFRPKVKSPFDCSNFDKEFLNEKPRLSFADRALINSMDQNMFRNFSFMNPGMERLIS

MDA-MB-231 = assay: Cytotoxicity against human MDA-MB-231/M cells assessed as reduction in cell viability incubated for 96 hrs by MTT assay; type: functional, cell-based; details: MDA-MB-231, 96 h
4T1 = assay: Cytotoxicity against mouse 4T1 cells assessed as reduction in cell viability incubated for 96 hrs by MTT assay; type: functional, cell-based; details: 4T1, 96 h
[8] = target: Protein kinase C alpha type (Homo sapiens) (UniProt P17252); assay: Inhibition of PKCalpha (unknown origin) by Z'LYTE screening method relative to control; details: concentration not given here
[9] = target: Protein kinase C beta type (Homo sapiens) (UniProt P05771); assay: Inhibition of PKCbeta1 (unknown origin) by Z'LYTE screening method relative to control; details: concentration not given here
[10] = target: Protein kinase C beta type (Homo sapiens) (UniProt P05771); assay: Inhibition of PKCbeta2 (unknown origin) by Z'LYTE screening method relative to control; details: concentration not given here
[11] = target: Proto-oncogene tyrosine-protein kinase receptor Ret (Homo sapiens) (UniProt P07949); assay: Inhibition of RET (unknown origin) by Z'LYTE screening method relative to control; details: concentration not given here
[12] = target: Serine/threonine-protein kinase D3 (Homo sapiens, UniProt O94806); assay: Inhibition of PKCnu (unknown origin) by IMAP kinase assay
[13] = target: Protein kinase C epsilon type (Homo sapiens, UniProt Q02156); assay: Inhibition of PKCepsilon (unknown origin) by IMAP kinase assay
[14] = target: T2, Protein kinase C theta type; assay: Inhibition of full length human PKCtheta using 5-FAM-RFARKGSLRQKNV-OH peptide substrate incubated for 30 mins by IMAP kinase assay
Target sequence in this assay (Q04759 whole entry): as the sequence (Q04759 whole entry, looked up) above

[15] = target: T3, Protein kinase C epsilon type (Homo sapiens) (UniProt Q02156); assay: Inhibition of PKCepsilon (unknown origin) by Z'LYTE screening method relative to control; details: concentration not given here
T3 sequence (whole entry): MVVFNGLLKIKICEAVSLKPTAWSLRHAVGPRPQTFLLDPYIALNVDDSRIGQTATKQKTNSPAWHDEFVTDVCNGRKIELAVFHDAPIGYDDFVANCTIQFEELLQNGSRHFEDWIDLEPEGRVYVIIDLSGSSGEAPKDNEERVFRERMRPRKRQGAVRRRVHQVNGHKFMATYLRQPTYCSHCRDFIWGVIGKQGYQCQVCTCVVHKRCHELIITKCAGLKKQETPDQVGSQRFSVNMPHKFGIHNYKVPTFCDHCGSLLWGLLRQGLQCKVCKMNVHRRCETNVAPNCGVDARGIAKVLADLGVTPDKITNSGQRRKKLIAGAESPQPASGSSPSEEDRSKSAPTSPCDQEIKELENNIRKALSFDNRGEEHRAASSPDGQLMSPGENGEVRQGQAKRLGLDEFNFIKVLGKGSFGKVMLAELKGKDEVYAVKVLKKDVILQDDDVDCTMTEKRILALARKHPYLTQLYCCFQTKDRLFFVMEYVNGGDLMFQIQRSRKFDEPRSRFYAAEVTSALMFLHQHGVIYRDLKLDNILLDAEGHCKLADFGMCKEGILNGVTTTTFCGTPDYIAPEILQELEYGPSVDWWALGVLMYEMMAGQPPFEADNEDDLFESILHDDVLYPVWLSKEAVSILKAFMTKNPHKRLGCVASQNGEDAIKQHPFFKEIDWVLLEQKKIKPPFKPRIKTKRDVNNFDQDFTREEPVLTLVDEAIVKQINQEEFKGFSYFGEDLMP

[16] = target: T4, Serine/threonine-protein kinase D1 (Homo sapiens) (UniProt Q15139); assay: Inhibition of PKCmu (unknown origin) by Z'LYTE screening method relative to control; details: concentration not given here
T4 sequence (whole entry): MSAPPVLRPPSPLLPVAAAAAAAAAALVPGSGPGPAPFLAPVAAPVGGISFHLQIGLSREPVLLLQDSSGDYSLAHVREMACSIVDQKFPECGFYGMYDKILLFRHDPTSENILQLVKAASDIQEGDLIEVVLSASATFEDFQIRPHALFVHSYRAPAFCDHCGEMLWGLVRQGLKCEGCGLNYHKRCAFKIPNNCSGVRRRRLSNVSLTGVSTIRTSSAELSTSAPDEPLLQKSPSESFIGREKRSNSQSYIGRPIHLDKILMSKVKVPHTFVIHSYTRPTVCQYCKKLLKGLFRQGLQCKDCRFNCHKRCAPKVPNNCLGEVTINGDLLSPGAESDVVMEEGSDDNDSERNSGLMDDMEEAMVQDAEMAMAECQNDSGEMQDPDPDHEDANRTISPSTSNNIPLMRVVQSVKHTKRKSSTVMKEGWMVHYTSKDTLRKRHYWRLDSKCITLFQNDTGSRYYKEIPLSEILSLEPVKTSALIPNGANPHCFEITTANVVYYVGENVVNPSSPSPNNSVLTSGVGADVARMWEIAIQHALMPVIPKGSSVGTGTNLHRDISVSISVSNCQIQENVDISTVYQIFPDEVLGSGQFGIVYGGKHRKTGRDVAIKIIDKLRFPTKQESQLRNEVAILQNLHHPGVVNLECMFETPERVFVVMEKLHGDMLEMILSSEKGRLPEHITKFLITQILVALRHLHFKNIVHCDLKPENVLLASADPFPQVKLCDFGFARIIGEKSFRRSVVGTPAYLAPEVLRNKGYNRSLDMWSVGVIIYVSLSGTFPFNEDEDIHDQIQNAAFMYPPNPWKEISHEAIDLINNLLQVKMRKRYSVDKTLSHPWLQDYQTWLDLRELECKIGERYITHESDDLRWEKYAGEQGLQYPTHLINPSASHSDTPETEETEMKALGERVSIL

[17] = target: T5, Serine/threonine-protein kinase D3 (Homo sapiens) (UniProt O94806); assay: Inhibition of PKCnu (unknown origin) by Z'LYTE screening method relative to control; details: concentration not given here
T5 sequence (whole entry): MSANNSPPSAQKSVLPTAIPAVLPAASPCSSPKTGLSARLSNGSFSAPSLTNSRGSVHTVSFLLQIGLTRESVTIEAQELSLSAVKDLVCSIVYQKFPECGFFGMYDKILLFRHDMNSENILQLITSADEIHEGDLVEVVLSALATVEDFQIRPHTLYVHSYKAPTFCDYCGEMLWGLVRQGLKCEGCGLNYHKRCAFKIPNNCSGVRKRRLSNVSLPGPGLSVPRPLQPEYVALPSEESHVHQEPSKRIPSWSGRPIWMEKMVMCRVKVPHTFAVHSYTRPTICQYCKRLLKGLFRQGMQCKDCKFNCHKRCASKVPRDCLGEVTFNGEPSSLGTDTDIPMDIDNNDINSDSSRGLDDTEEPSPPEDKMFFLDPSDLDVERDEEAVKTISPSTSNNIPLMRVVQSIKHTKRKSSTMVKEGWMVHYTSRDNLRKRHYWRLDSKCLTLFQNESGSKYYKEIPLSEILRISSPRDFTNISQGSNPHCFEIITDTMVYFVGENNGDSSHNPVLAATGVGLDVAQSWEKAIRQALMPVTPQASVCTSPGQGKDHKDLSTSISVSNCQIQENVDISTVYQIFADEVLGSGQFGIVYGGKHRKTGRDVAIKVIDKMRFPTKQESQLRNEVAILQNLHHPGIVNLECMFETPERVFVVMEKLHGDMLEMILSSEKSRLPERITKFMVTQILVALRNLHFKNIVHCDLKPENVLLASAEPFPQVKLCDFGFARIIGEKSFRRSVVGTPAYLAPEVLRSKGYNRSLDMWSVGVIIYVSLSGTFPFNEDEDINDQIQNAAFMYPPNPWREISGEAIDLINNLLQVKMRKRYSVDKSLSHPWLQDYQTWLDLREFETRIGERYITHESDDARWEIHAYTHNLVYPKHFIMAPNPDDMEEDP

[18] = target: T6, Protein kinase C zeta type (Homo sapiens) (UniProt Q05513); assay: Inhibition of PKCzeta (unknown origin) by Z'LYTE screening method relative to control; details: concentration not given here
T6 sequence (whole entry): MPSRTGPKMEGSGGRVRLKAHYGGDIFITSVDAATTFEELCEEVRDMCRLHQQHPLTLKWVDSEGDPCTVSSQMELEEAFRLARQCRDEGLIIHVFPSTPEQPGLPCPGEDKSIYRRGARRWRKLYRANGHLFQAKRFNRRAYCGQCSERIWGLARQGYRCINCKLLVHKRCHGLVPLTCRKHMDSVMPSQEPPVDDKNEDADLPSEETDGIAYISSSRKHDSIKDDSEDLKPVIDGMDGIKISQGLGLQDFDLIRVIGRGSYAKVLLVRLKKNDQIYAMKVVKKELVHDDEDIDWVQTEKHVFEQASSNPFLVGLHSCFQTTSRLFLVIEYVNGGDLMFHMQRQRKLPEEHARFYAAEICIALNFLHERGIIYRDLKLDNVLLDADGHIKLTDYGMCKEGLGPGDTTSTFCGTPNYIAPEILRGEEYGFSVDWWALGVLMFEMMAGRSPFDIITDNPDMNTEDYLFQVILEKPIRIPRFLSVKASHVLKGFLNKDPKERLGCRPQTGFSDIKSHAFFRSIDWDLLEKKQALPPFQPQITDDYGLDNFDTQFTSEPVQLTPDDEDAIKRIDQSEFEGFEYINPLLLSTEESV

Sequence of Protein kinase C beta type (Homo sapiens) (P05771 2-671 limits assumed): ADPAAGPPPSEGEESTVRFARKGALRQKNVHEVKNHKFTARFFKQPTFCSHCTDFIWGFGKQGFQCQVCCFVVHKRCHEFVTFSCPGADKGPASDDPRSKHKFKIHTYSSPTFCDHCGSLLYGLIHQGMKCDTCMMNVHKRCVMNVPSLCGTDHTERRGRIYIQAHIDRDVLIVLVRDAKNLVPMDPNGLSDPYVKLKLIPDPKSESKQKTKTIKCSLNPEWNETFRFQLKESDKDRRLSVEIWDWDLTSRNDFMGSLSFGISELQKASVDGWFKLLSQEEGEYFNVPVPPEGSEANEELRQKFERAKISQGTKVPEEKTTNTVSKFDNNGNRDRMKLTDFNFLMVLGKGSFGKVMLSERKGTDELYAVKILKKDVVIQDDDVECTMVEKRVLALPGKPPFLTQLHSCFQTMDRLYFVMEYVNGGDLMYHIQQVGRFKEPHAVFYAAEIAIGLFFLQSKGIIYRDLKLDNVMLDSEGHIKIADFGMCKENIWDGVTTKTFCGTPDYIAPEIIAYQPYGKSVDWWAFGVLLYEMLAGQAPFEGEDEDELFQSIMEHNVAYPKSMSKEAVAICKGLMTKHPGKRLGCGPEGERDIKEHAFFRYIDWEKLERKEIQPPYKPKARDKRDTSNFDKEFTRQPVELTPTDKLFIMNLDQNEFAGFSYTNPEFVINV
Sequence of Aurora kinase B (Homo sapiens) (Q96GD4 whole entry): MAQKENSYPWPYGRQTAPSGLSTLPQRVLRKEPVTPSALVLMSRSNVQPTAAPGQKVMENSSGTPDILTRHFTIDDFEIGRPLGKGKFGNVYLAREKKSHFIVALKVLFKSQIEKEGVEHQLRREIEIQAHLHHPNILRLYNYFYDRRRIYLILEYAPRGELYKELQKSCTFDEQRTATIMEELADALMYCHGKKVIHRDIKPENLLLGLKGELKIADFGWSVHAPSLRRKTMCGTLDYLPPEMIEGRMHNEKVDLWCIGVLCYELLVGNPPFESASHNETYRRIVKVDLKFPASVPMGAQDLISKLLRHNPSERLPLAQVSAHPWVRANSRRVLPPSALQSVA
Sequence of Proto-oncogene tyrosine-protein kinase receptor Ret (Homo sapiens) (P07949 whole entry): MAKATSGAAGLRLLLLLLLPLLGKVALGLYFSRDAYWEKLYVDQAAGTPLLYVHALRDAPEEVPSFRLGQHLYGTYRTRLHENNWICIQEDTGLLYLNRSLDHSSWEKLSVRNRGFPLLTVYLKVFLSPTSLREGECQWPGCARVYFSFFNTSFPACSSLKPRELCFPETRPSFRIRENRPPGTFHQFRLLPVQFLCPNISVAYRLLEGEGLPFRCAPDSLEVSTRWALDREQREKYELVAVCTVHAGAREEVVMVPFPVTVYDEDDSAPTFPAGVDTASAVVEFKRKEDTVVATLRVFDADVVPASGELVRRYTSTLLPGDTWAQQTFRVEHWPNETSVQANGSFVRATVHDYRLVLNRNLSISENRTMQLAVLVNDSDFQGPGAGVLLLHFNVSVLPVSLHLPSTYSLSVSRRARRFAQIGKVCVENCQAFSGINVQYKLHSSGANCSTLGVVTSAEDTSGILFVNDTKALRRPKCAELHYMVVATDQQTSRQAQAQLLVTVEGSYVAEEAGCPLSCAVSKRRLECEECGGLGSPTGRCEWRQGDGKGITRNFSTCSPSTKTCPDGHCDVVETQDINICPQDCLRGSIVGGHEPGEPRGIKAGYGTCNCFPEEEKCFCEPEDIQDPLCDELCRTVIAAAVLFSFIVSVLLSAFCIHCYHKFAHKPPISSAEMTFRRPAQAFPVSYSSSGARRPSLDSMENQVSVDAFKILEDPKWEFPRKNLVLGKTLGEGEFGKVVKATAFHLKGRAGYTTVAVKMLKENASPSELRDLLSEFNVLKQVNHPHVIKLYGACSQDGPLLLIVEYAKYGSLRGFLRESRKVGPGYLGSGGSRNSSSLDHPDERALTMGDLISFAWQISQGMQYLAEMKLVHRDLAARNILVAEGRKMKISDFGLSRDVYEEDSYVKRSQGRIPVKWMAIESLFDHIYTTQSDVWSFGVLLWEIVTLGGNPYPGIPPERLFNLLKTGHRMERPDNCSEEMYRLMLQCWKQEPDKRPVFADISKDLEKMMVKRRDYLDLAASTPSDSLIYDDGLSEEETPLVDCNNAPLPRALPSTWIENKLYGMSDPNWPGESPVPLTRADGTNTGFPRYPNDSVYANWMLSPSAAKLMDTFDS
Sequence of Protein kinase C eta type (P24723 whole entry): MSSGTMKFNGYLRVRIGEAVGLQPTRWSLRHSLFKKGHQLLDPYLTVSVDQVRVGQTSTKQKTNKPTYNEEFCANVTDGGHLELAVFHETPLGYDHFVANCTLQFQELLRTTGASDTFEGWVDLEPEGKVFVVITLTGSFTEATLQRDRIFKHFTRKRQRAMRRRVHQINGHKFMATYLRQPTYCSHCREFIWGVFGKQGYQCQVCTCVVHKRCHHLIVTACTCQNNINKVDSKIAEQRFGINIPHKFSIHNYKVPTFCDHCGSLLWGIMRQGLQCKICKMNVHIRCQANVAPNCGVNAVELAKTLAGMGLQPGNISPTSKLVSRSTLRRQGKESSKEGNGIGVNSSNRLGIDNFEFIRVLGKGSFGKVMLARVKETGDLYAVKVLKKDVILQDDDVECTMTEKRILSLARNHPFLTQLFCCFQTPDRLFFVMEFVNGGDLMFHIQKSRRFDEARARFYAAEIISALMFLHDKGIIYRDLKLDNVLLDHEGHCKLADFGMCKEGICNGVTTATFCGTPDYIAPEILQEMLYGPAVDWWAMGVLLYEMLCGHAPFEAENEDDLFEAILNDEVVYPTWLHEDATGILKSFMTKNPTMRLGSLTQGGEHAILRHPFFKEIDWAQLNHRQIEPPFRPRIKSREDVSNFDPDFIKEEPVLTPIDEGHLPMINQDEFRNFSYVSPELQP
Sequence of Aurora kinase C (Q9UQB9 whole entry): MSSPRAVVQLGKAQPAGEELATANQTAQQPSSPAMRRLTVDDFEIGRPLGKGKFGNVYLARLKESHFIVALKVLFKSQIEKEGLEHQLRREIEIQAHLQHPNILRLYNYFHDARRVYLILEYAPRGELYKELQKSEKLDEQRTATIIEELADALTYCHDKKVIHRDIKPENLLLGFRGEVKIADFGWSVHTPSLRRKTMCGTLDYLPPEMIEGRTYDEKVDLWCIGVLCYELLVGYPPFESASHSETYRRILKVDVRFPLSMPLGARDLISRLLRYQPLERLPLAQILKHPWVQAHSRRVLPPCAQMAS

| Compound | inhibition [2] | inhibition [3] | inhibition [4] | inhibition [5] | inhibition [6] | inhibition [7] | IC50 (MDA-MB-231) | IC50 (4T1) | inhibition [8] | inhibition [9] | inhibition [10] | also measured |
| --- | --- | --- | --- | --- | --- | --- | --- | --- | --- | --- | --- | --- |
| O=C(Nc1cccc(Cl)c1)Nc1ncc(CCNc2ncnc3ccsc23)s1 [SNS-314] |  |  |  |  |  |  |  |  |  |  |  | IC50 (Aurora kinase C): 3 nM |
| O=C(N[C@@H]1CNCCC[C@H]1OC(=O)c1cc(O)c(C(=O)c2c(O)cccc2C(=O)O)c(O)c1)c1ccc(O)cc1 [BALANOL] |  |  |  |  |  |  |  |  |  |  |  | IC50 [1]: 4 nM |
| O=c1c2ccccc2sn1-c1nc(NC2CCSC2)c2nc[nH]c2n1 (configuration not stated) | 69% | 7% | 92% | 85% | 81% | 97% | 10300 nM | 12200 nM |  |  |  |  |
| O=c1c2ccccc2sn1-c1nc(NC2CCCC2)c2nc[nH]c2n1 | 58% | 7% | 65% | 40% | 13% | 60% | 29200 nM | 25600 nM |  |  |  |  |
| Cc1cc(Nc2cc(N3CCN(C)CC3)nc(Sc3ccc(NC(=O)C4CC4)cc3)n2)n[nH]1 |  |  |  |  |  |  |  |  | 8% | 6% | 2% | inhibition [11]: 62% |
| CN1CCN(c2nc(C3=C(c4c[nH]c5ccccc45)C(=O)NC3=O)c3ccccc3n2)CC1 [SOTRASTAURIN] |  |  |  |  |  |  |  |  | 100% | 98% | 98% | IC50 [12]: 2.1 nM; IC50 [13]: 3.2 nM; IC50 [14]: 0.22 nM; inhibition [15]: 76%; inhibition [16]: 92%; inhibition [17]: 76%; inhibition [18]: 80% |
